Experiment [1] relates to adult female O. ochengi. Put plainly: Adult female Onchocerca ochengi viability, MTT/formazan assay in vitro. Conditions: Day 7, MTT/formazan. The format is cell-based. The protocol:
Cows that had grazed in northern Cameroon where O. ochengi is highly endemic were brought to abattoirs located in Douala, Cameroon. Subcutaneous nodules containing adult O. ochengi worms were identified on the umbilical skin of infected cows. Adult worm masses containing one viable, adult female and zero to several adult males were carefully recovered by dissection of the nodule with a sterile razor blade. The masses were then incubated in 4 mL of complete culture medium (CCM), which was comprised of RPMI-1640 (Sigma-Aldrich), 5% newborn calf serum, 200 units/mL penicillin, 200 μg/mL streptomycin and 2.5 μg/mL amphotericin B (Sigma-Aldrich), in standard 12-well culture plates. […] Adult female worm viability was assessed on day 7 by the standard MTT/formazan assay in which each nodular mass was placed in a well of a 48-well microtiter plate containing 500 μL of 0.5 mg/mL MTT (Sigma-Aldrich) in incomplete culture medium, and then incubated in the dark at 37°C for 30 minutes. Adult female worm viability was evaluated visually by the extent to which the female worm mass was stained with MTT. Mean percent inhibition of formazan formation was calculated relative to the negative control worm masses after 7 days in culture. […]

The subject of experiment [2] is O. volvulus L3. The experiment is described as follows: Onchocerca volvulus L3 molting inhibition in vitro. The format is cell-based. Conditions: O. volvulus L3, Day 6, inhibition of molting. The protocol:
L3 stage larvae previously collected and cryopreserved in Cameroon were rapidly thawed in a 37°C water bath and washed in incomplete media comprised of a 1:1 ratio of Medium NCTC-109 and IMDM + GlutaMax-I containing 1X glutamine, penicillin, and streptomycin (all from Gibco by Life Technologies, Grand Island, NY). The number of worms was adjusted to about 10 worms per 50 μL in complete medium containing 20% heat inactivated FCS. Worms were distributed into the wells of a 96-well plate containing 50 μL of 1.5 × 10^5 normal human PBMCs. 100 μL of 2X auranofin (final concentrations of 30 μM, 10 μM, 3 μM, 1 μM and 0.3 μM) were added to each well for a final volume of 200 μL. Each concentration was tested in triplicate. Controls included 0.05% DMSO in complete medium and complete medium only with neither DMSO nor compound added. The 96-well plates were then incubated at 37°C in a 5% CO2 incubator for 6 days, then molting was assessed using an inverted microscope. Molting was determined in each well by counting the presence of fourth-stage larvae (L4) and empty casts of the L3. The percent inhibition of molting was calculated based on the number of treated larvae that were able to molt in comparison to the number of control larvae that had successfully molted. Prism 4.0 for Windows was used to calculate IC50s.

For experiment [3], the system named is adult female O. ochengi. The experiment is described as follows: Transmission electron microscopy of treated adult female O. ochengi. It is filed as cell-based, Onchocerca ochengi. Conditions: 10 μM, 7 days, vs untreated. The protocol: Adult female B. pahangi worms were incubated with either 1 μM, 0.3 μM, or 0.1 μM auranofin, 10 μM flubendazole (as a positive control), or 1% DMSO overnight, then cut into 3 segments separating the anterior, middle and posterior sections. The middle sections were further cut into 1 mm sized pieces in fixative (2.5% glutaraldehyde and 2% paraformaldehyde in 0.1 M sodium cacodylate buffer, pH 7.3–7.4) and stored at 4°C. Middle sections were subsequently treated with 1% tannic acid for 1 hour, followed by three buffer washes before post fixation staining with 2% osmium tetroxide for 1 hour. The samples were washed three times in buffer before dehydration in an ethanol series. Worm sections were then infiltrated with propylene oxide, embedded in epon 812 resin and polymerized in a vacuum oven at 60°C overnight. Ultrathin sections were cut using an RMC MTX ultramicrotome with a Diatome diamond knife followed by post staining of the grids with saturated ethanolic uranyl acetate and Reynolds lead citrate. Samples were imaged on a FEI Tecnai 12 spirit TEM operated at 80 kV. A similar procedure was performed on adult female O. ochengi worm masses that were cultured for 7 days with 10 μM auranofin before fixation of cut pieces of the adult female mass. Untreated adult female masses cultured for 7 days and fixed by the same procedure served as the control.

Experiment [4] concerns cysteine protease cathepsin B. On the set-up: method as in PMID 16789749. Conditions: cited from earlier work.

Each structure is given as a SMILES string.

Usually IC50 stands for the point on the concentration scale where inhibition reaches its midpoint. With `CC[PH](CC)(CC)[Au][S][C@@H]1O[C@H](COC(C)=O)[C@@H](OC(C)=O)[C@H](OC(C)=O)[C@H]1OC(C)=O` [auranofin, 2,3,4,6-tetra-O-acetyl-1-thio-beta-D-glucopyranosato-S (triethylphosphine) gold], the values for the IC50 in experiment [1], in experiment [2] and in experiment [4] were 300 nM, 300 nM and roughly 250000 nM, respectively. Moreover, the “ultrastructure (TEM) of adult female O. ochengi” value in experiment [3] is “Numerous vacuoles with inclusion bodies were observed in the muscle tissue below the hypodermal chord”.

(Values after PMC4336141, “Repurposing Auranofin as a Lead Candidate for Treatment of Lymphatic Filariasis and Onchocerciasis” (PLoS Neglected Tropical Diseases, 2015).)
